According to US20220290085A1, “CELL-SENSORY BIOSCAFFOLDS, FABRICATION METHODS AND APPLICATIONS OF SAME” (BOARD OF TRUSTEES OF THE UNIVERSITY OF ARKANSAS, priority 2019, published 2022):

How the values were obtained:
[1] = test system: MDA-MB231; test: Impedance on TiO2 nanowire bioscaffold sensor of DOX-treated MDA-MB231 cells; type: cell-based, human; settings: DOX 2 μM 24 hrs, FIG. 25
Method: (§1) To investigate the cell impedance change due to the DOX, the two cell lines were first cultured to reach about 90% confluence and then the DOX (2 μM) was added over two time-intervals, about 24 hours and about 48 hours. The cells were then harvested using trypsin and counted using the hemocytometer and trypan blue stain to control the cell number. The cells were then suspended in about 10 mL of 1×PBS with the TiO2 nanowires sensor for about 35 minutes, and the impedance was tested likewise from about 40 kHz to about 1 MHz. The DOX is supposed to decrease the MCF7 impedance due to cell's resistance to the DOX. This is because the overexpressed P-glycoprotein 1 (P-gp), also called multidrug resistance protein 1 (MDR1) or ATP-binding cassette sub-family B member 1 (ABCB1) or cluster of differentiation 243 (CD243), can pump the foreign molecules out of the MCF7 cell.
(§2) The second set of experiment was done as in the first step, with glucose (5.5 mM) in the cell suspensions to investigate the cell impedance correspondence to glucose effect after being treated with DOX. The biosensors were done after about 35 minutes in the cell suspension, with the impedance parameters same as described previously.

[2] = test system: MCF7; test: Impedance on TiO2 nanowire bioscaffold sensor of DOX-treated MCF7 cells; type: cell-based, human; settings: DOX 2 μM 24 hrs, then glucose 5.5 mM for 35 minutes, 1×PBS, FIG. 24
Method: as §1, §2

[3] = test system: breast cancer cells (MCF7); test: Doxorubicin drug cytotoxicity in cell culture; type: cell-based, human; settings: drug cytotoxicity assessment, FIG. 23
Method: Impedance Measurement for Doxorubicin Drug Effect on Breast Cancer Cell Lines: This test was performed to investigate the effect of a well-known chemotherapy drug Doxorubicin on two different cancer cell lines. Doxorubicin (DOX, C27H29NO11), also called Adriamycin™, is a popular chemotherapy drug for treating several types of cancer including breast cancer via triggering the cancer cell death. This drug was used to quantify the drug effect on breast cancer cells' metabolism in response to stresses from different dosages of the DOX, via monitoring the impedance signal change from the cancer cells before and after the DOX treatment. The drug cytotoxicity was assessed to determine the concentration of 2.0 μM, which the cancer cells start to die in a proper pace that can enable us to quantitatively characterize the DOX effect on the cancer cell's metabolism and apoptosis directly on the smart bioscaffold, as shown in FIG. 23.

[4] = test system: MCF7; settings: MCF7 vs MDA-MB231; cited from earlier work

## COc1cccc2c1C(=O)c1c(O)c3c(c(O)c1C2=O)C[C@@](O)(C(=O)CO)C[C@@H]3O[C@H]1C[C@H](N)[C@H](O)[C@H](C)O1 [Doxorubicin]
[1]; glucose 5.5 mM
  response to glucose after being pre-treated with DOX: no significant response to glucose
[1]; then glucose 5.5 mM for 35 minutes, 1×PBS
  impedance on the bioscaffold after DOX pre-treatment and glucose incubation: lower impedance
[2]
  impedance on the bioscaffold at low frequency after DOX pre-treatment and glucose incubation: higher impedance
[3]
  concentration at which the cancer cells start to die in a proper pace: 2.0 µM
[4]
  resistance of MCF7 to DOX compared with MDA-MB231: more resistive
